# Columns and labels:
# Experiment in all cases: Agar well diffusion antifungal assay against molds
# Type in all cases: cell-based
# Conditions in all cases: PDA plates, 25° C. 72 hours; NA: No antagonism was observed
# [1] = test system: Penicillium chrysogenum Thom (ATCC MYA-4644)
# Protocol: (§1) The agar well diffusion assay was performed to evaluate the antagonistic activity of B. amyloliquefaciens 298 against the growth of pathogenic bacteria including Escherichia coli ATCC 22922, Pseudomonas aeruginosa, B. cereus ATCC 27348, Staphylococcus aureus ATCC 11335, Salmonella Typhimurium ATCC 14028 and Listeria innocua ATCC 3586. […] Brain Heart Infusion (BHI) Agar was used for the antagonism against pathogenic microorganisms while the Potato Dextrose Agar (PDA) was used for evaluation against molds. Reference pathogens were prepared using BHI broth at 37° C. for 18 hours while B. amyloliquefaciens 298 was grown using LB broth at 37° C. for 18 hours. Molds were prepared using PDA at 25° C. with 85% HR for 7 days. Mold spores, pathogens and B. amyloliquefaciens 298 were harvested and resuspended in PBS. Pathogens and B. amyloliquefaciens 298 were adjusted to an optical density of 0.2 and 100 uL of pathogen suspended in PBS was spread on BHI agar plates. The same amount of mold spore suspension was inoculated on PDA. Wells were made in all the plates and 20 μL of B. amyloliquefaciens 298 suspensions were inoculated in the wells while the BHI plates were incubated at 37° C. for 24 hours and PDA plates at 25° C. for 72 hours.
# (§2) The agar well diffusion assay was performed to evaluate the antagonistic activity of B. subtilis 3 against the growth of pathogenic bacteria including Escherichia coli ATCC 25922, Pseudomonas aeruginosa ATCC 27853, B. cereus ATCC 27348, Staphylococcus aureus ATCC 6538, Salmonella Typhymurium ATCC 14028 and Listeria inocua ATCC 33090. […] Brain Heart Infusion (BHI) Agar was used for the antagonism against pathogenic microorganisms while the Potato Dextrose Agar (PDA) was used for evaluation against molds. Reference pathogens were prepared using BHI broth 37° C. for 18 hours, while B. subtilis 3 was grown using LB broth at 37° C. for 18 hours. Molds were prepared using PDA at 25° C. with 85% HR for 7 days. Mold spores, pathogens and B. subtilis 3 were harvested and resuspended in PBS. […] The same amount of mold spore suspension was inoculated on PDA. […]
# [2] = test system: Alternaria alternata (Fries) Keissler (ATCC MYA-4642)
# Protocol: as §1, §2
# [3] = test system: Cladosporium sphaerospermum Penzig (ATCC MYA-4645)
# Protocol: as §1, §2
smiles,measurement,setting,value
"OO [Hydrogen peroxide 10%, Hydrogen peroxide]","Inhibition zone, Penicillium chrysogenum Thom (ATCC MYA-4644)",[1],10 mm
same,"Inhibition zone, Alternaria alternata (Fries) Keissler (ATCC MYA-4642)",[2],8 mm
same,"Inhibition zone, Cladosporium sphaerospermum Penzig (ATCC MYA-4645)",[3],12 mm
